Laboratory results published in US7834023B2 (Portola Pharmaceuticals, Inc., priority 2006, dated 2010).

Molecular target: T1, P2Y12 receptor (Homo sapiens, UniProt Q9H244)
T1 construct: endogenous in cells; host or cells: human platelets (outdated from blood banks or fresh), apyrase-washed, whole
Experiment: platelet ADP receptor binding assay (ARB): inhibition of [3H]2-MeS-ADP binding to platelets
Conditions: [3H]2-MeS-ADP binding to apyrase-washed human platelets
Experimental: 1. The Ability of Candidate Molecules to Inhibit the Binding of [^3H]2-MeS-ADP to the […] Receptor on Platelets was Determined Using a Radioligand Binding Assay.
Utilizing this assay the potency of inhibition of such compounds with respect to [^3H]2-MeS-ADP binding to whole platelets is determined. Under the conditions described in II (3) below, the binding of [^3H]2-MeS-ADP is solely due to the interaction of this ligand with the P2Y12 receptor, in that all the specific binding measured in this assay is competable with a P2Y12 antagonist (i.e., the specific binding is reduced to background levels by competition with an excess of P2Y12 antagonist, with no competition of binding when a P2Y1 antagonist is pre-incubated with the platelet preparation). [^3H]2-MeS-ADP binding experiments are routinely performed with outdated human platelets collected by standard procedures at hospital blood banks. Apyrase-washed outdated platelets are prepared as follows (all steps at room temperature, if not indicated otherwise):
Outdated platelet suspensions are diluted with 1 volume of CGS and platelets pelleted by centrifugation at 1900×g for 45 minutes. Platelet pellets are resuspended at 3-6×10^9 platelets/ml in CGS containing 1 U/ml apyrase (grade V, Sigma, St. Louis, Mo.) and incubated for 15 minutes at 37° C. After centrifugation at 730×g for 20 minutes, pellets are resuspended in Hepes-Tyrode's buffer containing 0.1% BSA (Sigma, St. Louis, Mo.) at a concentration of 6.66×10^8 platelets/ml. Binding experiments are performed after >45 minutes resting of the platelets.
Alternatively, binding experiments are performed with fresh human platelets prepared as described in section I (Inhibition of ADP-Mediated Platelet Aggregation in vitro), except that platelets are resuspended in Hepes-Tyrode's buffer containing 0.1% BSA (Sigma, St. Louis, Mo.) at a concentration of 6.66×10^8 platelets/mil. Very similar results are obtained with fresh and outdated platelets.
A platelet ADP receptor binding assay (ARB) using the tritiated potent agonist ligand [^3H]2-MeS-ADP (Jantzen, H. M. et al. (1999) Thromb. Hemost. 81:111-117) has been adapted to the 96-well microtiter format. In an assay volume of 0.2 ml Hepes-Tyrode's buffer with 0.1% BSA and 0.6% DMSO, 1×10^8 apyrase-washed platelets are preincubated in 96-well flat bottom microtiter plates for 5 minutes with serial dilutions of test compounds before addition of 1 nM [^3H]2-MeS-ADP ([^3H]2-methylthioadenosine-5′-diphosphate, ammonium salt; specific activity 20-50 Ci/mmole, obtained by custom synthesis from Amersham Life Science, Inc., Arlington Heights, Ill., or NEN Life Science Products, Boston, Mass.). Total binding is determined in the absence of test compounds. Samples for nonspecific binding may contain 10 μM unlabelled 2-MeS-ADP (RBI, Natick, Mass.). After incubation for 15 minutes at room temperature, unbound radioligand is separated by rapid filtration and two washes with cold (4-8° C.) Binding Wash Buffer (10 mM Hepes pH 7.4, 138 mM NaCl) using a 96-well cell harvester (Minidisc 96, Skatron Instruments, Sterling, Va.) and 8×12 GF/C glassfiber filtermats (Printed Filtermat A, for 1450 Microbeta, Wallac Inc., Gaithersburg, Md.). The platelet-bound radioactivity on the filtermats is determined in a scintillation counter (Microbeta 1450, Wallac Inc., Gaithersburg, Md.). Specific binding is determined by subtraction of non-specific binding from total binding, and specific binding in the presence of test compounds is expressed as % of specific binding in the absence of test compound dilutions. IC50s were derived by non-linear regression analysis.

T1 sequence (Q9H244 whole entry): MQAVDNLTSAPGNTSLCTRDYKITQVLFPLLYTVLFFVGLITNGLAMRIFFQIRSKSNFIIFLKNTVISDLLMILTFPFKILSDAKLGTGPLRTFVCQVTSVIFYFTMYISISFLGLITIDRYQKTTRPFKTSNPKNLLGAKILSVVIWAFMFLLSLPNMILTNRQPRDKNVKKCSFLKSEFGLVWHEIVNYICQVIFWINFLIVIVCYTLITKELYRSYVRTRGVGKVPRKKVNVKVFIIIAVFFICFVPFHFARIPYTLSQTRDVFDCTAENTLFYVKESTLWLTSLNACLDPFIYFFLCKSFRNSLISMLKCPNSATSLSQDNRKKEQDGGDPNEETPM

SMILES	IC50 [µM]
CNc1cc2[nH]c(=O)n(-c3ccc(C(=O)NC(C(=O)O)c4ccc(Cl)s4)cc3OC)c(=O)c2cc1F (stereo not shown) [Compound 51, 2-(5-chlorothiophen-2-yl)-2-(4-(6-fluoro-7-(methylamino)-2,4-dioxo-1,2-dihydroquinazolin-3(4H)-yl)-3-methoxybenzamido)acetic acid]	> 0.5
CNc1cc2[nH]c(=O)n(-c3ccc(C(=O)NC(C(=O)O)c4ccc(Cl)cc4)cc3)c(=O)c2cc1F (stereo not shown) [Compound 14, 2-(4-chlorophenyl)-2-(4-(6-fluoro-7-(methylamino)-2,4-dioxo-1,2-dihydroquinazolin-3(4H)-yl)benzamido)acetic acid]	> 0.5
O=C(NC(Cc1cccs1)C(=O)O)c1ccc(-n2c(=O)[nH]c3cc(NCc4ccc(F)cc4)ccc3c2=O)cc1 (stereo not shown) [Compound 3, 2-(4-(7-(4-fluorobenzylamino)-2,4-dioxo-1,2-dihydroquinazolin-3(4H)-yl)benzamido)-3-(thiophen-2-yl)propanoic acid]	0.05 to 0.5
CNc1cc2c(cc1F)C(=O)N(c1ccc(C(=O)N[C@@H](c3nnn[nH]3)c3ccc(Cl)s3)cc1)CO2 [Compound 87, N-((5-chlorothiophen-2-yl)(1H-tetrazol-5-yl)methyl)-4-(6-fluoro-7-(methylamino)-4-oxo-2H-benzo[e][1,3]oxazin-3(4H)-yl)benzamide]	< 0.05
N#Cc1ccc2c(=O)n(-c3ccc(C(=O)NC(C(=O)O)c4cccs4)cc3)ccc2c1 (stereo not shown) [Compound 95]	> 0.5
O=C(NCc1nnn[nH]1)c1ccc(-n2c(=O)[nH]c3cc(NCc4ccc(F)cc4)ccc3c2=O)cc1 [Compound 10, N-((1H-tetrazol-5-yl)methyl)-4-(7-(4-fluorobenzylamino)-2,4-dioxo-1,2-dihydroquinazolin-3(4H)-yl)benzamide]	> 0.5
CNc1cc2[nH]c(=O)n(-c3ccc(C(=O)NC(c4nnn[nH]4)c4ccccc4Cl)cc3)c(=O)c2cc1F (stereo not shown) [Compound 28, N-((2-chlorophenyl)(1H-tetrazol-5-yl)methyl)-4-(6-fluoro-7-(methylamino)-2,4-dioxo-1,2-dihydroquinazolin-3(4H)-yl)benzamide]	> 0.5
CCOC(=O)C(NC(=O)c1ccc(-n2c(=O)[nH]c3cc(NC)c(F)cc3c2=O)cc1)c1ccc(Cl)s1 (stereo not shown) [Compound 26, ethyl 2-(5-chlorothiophen-2-yl)-2-(4-(6-fluoro-7-(methylamino)-2,4-dioxo-1,2-dihydroquinazolin-3(4H)-yl)benzamido)acetate]	> 0.5
CNc1cc2c(cc1F)C(=O)N(c1ccc(CC(=O)NC(C(N)=O)c3ccc(Cl)s3)cc1)CO2 (stereo not shown) [Compound 122, N-(2-amino-1-(5-chlorothiophen-2-yl)-2-oxoethyl)-2-(4-(6-fluoro-7-(methylamino)-4-oxo-2H-benzo[e][1,3]oxazin-3(4H)-yl)phenyl)acetamide]	0.05 to 0.5
CNc1cc2c(cc1F)C(=O)N(c1ccc(CC(=O)NC(C(=O)N3CCCC3)c3ccc(Cl)s3)cc1)CO2 (stereo not shown) [Compound 121, N-(1-(5-chlorothiophen-2-yl)-2-oxo-2-(pyrrolidin-1-yl)ethyl)-2-(4-(6-fluoro-7-(methylamino)-4-oxo-2H-benzo[e][1,3]oxazin-3(4H)-yl)phenyl)acetamide]	> 0.5
CNc1cc2[nH]c(=O)n(-c3ccc(C(=O)NC(c4cccc(C)c4)c4nnn[nH]4)cc3)c(=O)c2cc1F (stereo not shown) [Compound 22]	> 0.5
CNc1cc2[nH]c(=O)n(-c3ccc(C(=O)NCc4ccc(Cl)s4)cc3)c(=O)c2cc1F [Compound 4, N-((5-chlorothiophen-2-yl)methyl)-4-(6-fluoro-7-(methylamino)-2,4-dioxo-1,2-dihydroquinazolin-3(4H)-yl)benzamide]	0.05 to 0.5
CNc1cc2[nH]c(=O)n(-c3ccc(C(=O)NC(c4nsc(=O)[nH]4)c4ccc(Cl)s4)cc3)c(=O)c2cc1F (stereo not shown) [Compound 25, N-((5-chlorothiophen-2-yl)(5-oxo-4,5-dihydro-1,2,4-thiadiazol-3-yl)methyl)-4-(6-fluoro-7-(methylamino)-2,4-dioxo-1,2-dihydroquinazolin-3(4H)-yl)benzamide]	0.05 to 0.5
CNc1cc2c(cc1F)C(=O)N(c1ccc(C(=O)NC(Cc3ccccc3)C(=O)O)cc1)CO2 (stereo not shown) [Compound 59, 2-(4-(6-fluoro-7-(methylamino)-4-oxo-2H-benzo[e][1,3]oxazin-3(4H)-yl)benzamido)-3-phenylpropanoic acid]	> 0.5
CNc1cc2[nH]c(=O)n(-c3ccc(C(=O)NC(C(=O)O)c4cccs4)cc3)c(=O)c2cc1F (stereo not shown) [Compound 8, 2-(4-(6-fluoro-7-(methylamino)-2,4-dioxo-1,2-dihydroquinazolin-3(4H)-yl)benzamido)-2-(thiophen-2-yl)acetic acid]	> 0.5

Next, values leading:

IC50 [µM]	SMILES
> 0.5	N#Cc1ccc2c(=O)n(-c3ccc(C(=O)NC(C(=O)O)c4ccc(Cl)s4)cc3)ccc2c1 (stereo not shown) [Compound 98, 2-(5-chlorothiophen-2-yl)-2-(4-(6-cyano-1-oxoisoquinolin-2(1H)-yl)benzamido) acetic acid]
0.05 to 0.5	CCOC(=O)C(NC(=O)c1ccc(N2COc3cc(NC)c(F)cc3C2=O)cc1)c1ccc(Cl)s1 (stereo not shown) [Compound 67, ethyl 2-(5-chlorothiophen-2-yl)-2-(4-(6-fluoro-7-(methylamino)-4-oxo-2H-benzo[e][1,3]oxazin-3(4H)-yl)benzamido)acetate]
0.05 to 0.5	O=C(NC(C(=O)O)c1ccc(Cl)s1)c1ccc(-n2c(=O)[nH]c3ccc(I)cc3c2=O)cc1 (stereo not shown) [Compound 37, 2-(5-chlorothiophen-2-yl)-2-(4-(6-iodo-2,4-dioxo-1,2-dihydroquinazolin-3(4H)-yl)benzamido)acetic acid]
> 0.5	O=C(NC(C(=O)O)c1ccc(Cl)s1)c1ccc(-n2ccc3ccccc3c2=O)cc1 (stereo not shown) [Compound 96, 2-(5-chlorothiophen-2-yl)-2-(4-(1-oxoisoquinolin-2(1H)-yl)benzamido)acetic acid]
> 0.5	CNc1cc2c(cc1F)C(=O)N(c1ccc(C(=O)NC(C(=O)O)c3cccs3)cc1)CO2 (stereo not shown) [Compound 63, 2-(4-(6-fluoro-7-(methylamino)-4-oxo-2H-benzo[e][1,3]oxazin-3(4H)-yl)benzamido)-2-(thiophen-2-yl)acetic acid]
> 0.5	Cc1ccc2c(c1)OCN(c1ccc(C(=O)NC(C(=O)O)c3ccc(Cl)s3)cc1)C2=O (stereo not shown) [Compound 69, 2-(5-chlorothiophen-2-yl)-2-(4-(7-methyl-4-oxo-2H-benzo[e][1,3]oxazin-3(4H)-yl)benzamido)acetic acid]
> 0.5	CCc1ccc2c(=O)n(-c3ccc(C(=O)NC(C(=O)O)c4ccc(Cl)s4)cc3)ccc2c1 (stereo not shown) [Compound 93, 2-(5-chlorothiophen-2-yl)-2-(4-(6-ethyl-1-oxoisoquinolin-2(1H)-yl)benzamido)acetic acid]
> 0.5	CCc1ccc2c(c1)C(=O)N(c1ccc(C(=O)NC(C(=O)O)c3ccc(Cl)s3)cc1)CO2 (stereo not shown) [Compound 72, 2-(5-chlorothiophen-2-yl)-2-(4-(6-ethyl-4-oxo-2H-benzo[e][1,3]oxazin-3(4H)-yl)benzamido)acetic acid]
0.05 to 0.5	CNc1cc2ncn(-c3ccc(C(=O)NC(C(=O)O)c4ccc(Cl)s4)cc3)c(=O)c2cc1F (stereo not shown) [Compound 116, 2-(5-chlorothiophen-2-yl)-2-(4-(6-fluoro-7-(methylamino)-4-oxoquinazolin-3(4H)-yl)benzamido)acetic acid]
0.05 to 0.5	CNc1cc2c(cc1F)C(=O)N(c1ccc(C(=O)NC(c3ccc(Cl)s3)c3nc(C)cs3)cc1)CO2 (stereo not shown) [Compound 85, N-((5-chlorothiophen-2-yl)(4-methylthiazol-2-yl)methyl)-4-(6-fluoro-7-(methylamino)-4-oxo-2H-benzo[e][1,3]oxazin-3(4H)-yl)benzamide]
